Reference: patent US12503454B2, “LPA receptor antagonists and uses thereof” (Gilead Sciences, Inc., priority 2021, dated 2025)

Target: human LPAR1 (Homo sapiens, UniProt Q92633)
Assay: LPAR1 intracellular calcium mobilization assay (antagonist mode, FLIPR)
Format: cell-based
Details: CHO-K1 EDG2 cells expressing human LPAR1; test compound 0.5 nM to 10 μM pre-incubated 60 minutes at 37° C., then LPA 18:2 at EC80 concentration (100 nM)
Protocol: In vitro LPAR1 activity was measured in an intracellular calcium mobilization assay. CHO-K1 EDG2 cells (DiscoverX cat #93-0644C2) expressing human LPAR1 (NM_001401.3) were seeded in a total volume of 25 μL of Dulbecco's Modification of Eagle's Medium (DMEM) with 10% Fetal Bovine Serum, 1× PenStrepGlutamine, 300 μg/ml Hygromycin, and 800 μg/ml G418 into 384-well tissue culture plate (Grenier #781091) at 15,000 cells/well and incubated at 37° C. overnight. Prior to testing, 25 μL Calcium Loading Dye Component A (FLIPR Calcium 6 Assay Kit Molecular Device # R8190) and 2.5 mM Probenecid (Invitrogen # P36400, prepared fresh) in Hank's Balanced Salt Solution (Corning #21-023-CV), 20 mM HEPES (Corning #25-060-CI), 0.1% Bovine Serum Albumin (Sigma-Aldrich # A7906-500G) was add to the cells for 60 minutes at 37° C.
Agonist dose curves of LPA 18:2 (Avanti Polar Lipids cat #857138, 0.5 nM to 10 μM) were recorded to determine the LPA 18:2 EC80 for subsequent antagonist assays. For agonist dose curves, cells were removed from the incubator 2 hours after dye loading and transferred to the FLIPR Tetra instrument (Molecular Devices, San Jose, CA). Calcium mobilization was monitored for 5 min and 10 μL 6×LPA in HBSS/20 mM Hepes/0.1% bovine serum albumin (BSA) was added to the cells 5 seconds into the assay.
To determine the LPAR1 antagonist activity of test compounds, cells were pre-incubated with test compound at a dose range of 0.5 nM to 10 μM, followed by LPA at EC80 concentration (100 nM). After dye loading, cells were removed from the incubator and 0.3 μL of 200× antagonist was added. Cells were incubated for 60 minutes at 37° C. Antagonist activity was measured on a FLIPR Tetra. Calcium mobilization was monitored for 3.5 minutes and 10 μL 6×EC80 LPA in HBSS, 20 mM HEPES, and 0.1% BSA was added to the cells 5 seconds into the assay. Signal amplitude (Maximum minus minimum) values were plotted against log10 of antagonist concentration using Dose Response Tool (Gilead Sciences Inc.) to determine […].
To assess the antagonistic potential of exemplified compounds […] were determined for Compounds 1 to 66 in the LPAR1 calcium mobilization assay. The compound numbers correspond to the compound numbers in Examples 1 to 18. N/A=not available.

human LPAR1, sequence (Q92633 whole entry): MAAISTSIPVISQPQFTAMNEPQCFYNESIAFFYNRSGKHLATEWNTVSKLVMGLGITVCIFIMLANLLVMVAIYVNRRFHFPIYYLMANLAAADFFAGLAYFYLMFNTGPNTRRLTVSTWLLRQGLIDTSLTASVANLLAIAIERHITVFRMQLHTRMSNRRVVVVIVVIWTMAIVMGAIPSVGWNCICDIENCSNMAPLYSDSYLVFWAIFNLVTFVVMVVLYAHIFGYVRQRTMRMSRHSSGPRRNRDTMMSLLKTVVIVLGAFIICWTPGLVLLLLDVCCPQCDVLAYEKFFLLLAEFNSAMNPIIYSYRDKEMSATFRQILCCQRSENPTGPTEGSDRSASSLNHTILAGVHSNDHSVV

Row | EC50 [nM] | Compound
1 | 313 | C[C@@H](OC(=O)Nc1c(-c2ccc(C(=O)NC34CC(F)(C3)C4)cn2)nnn1C)c1cc(F)cnc1F [Compound 20, (R)-1-(2,5-difluoro-pyridin-3-yl)ethyl (4-(5-((3-fluoro-bicyclo[1.1.1]-pentan-1-yl)-carbamoyl)pyridin-2-yl)-1-methyl-1H-1,2,3-triazol-5-yl)carbamate]
2 | 233 | C[C@@H](OC(=O)Nc1c(-c2cc(F)c(C(=O)NC34CC(C#N)(C3)C4)cn2)nnn1C)c1cccnc1Cl [Compound 61, (R)-1-(2-chloropyridin-3-yl)ethyl (4-(5-((3-cyanobicyclo[1.1.1]pentan-1-yl)carbamoyl)-4-fluoropyridin-2-yl)-1-methyl-1H-1,2,3-triazol-5-yl)carbamate]
3 | 273 | C[C@@H](OC(=O)Nc1c(-c2ccc(C(=O)NC3CC(c4ccccc4)C3)cn2)nnn1C)c1cc(F)cnc1F (stereo partly drawn) [Compound 44, (R)-1-(2,5-difluoro-pyridin-3-yl)ethyl (1-methyl-4-(5-((3-phenylcyclo-butyl)carbamoyl)-pyridin-2-yl)-1H-1,2,3-triazol-5-yl)-carbamate]
4 | 3590 | C[C@@H](OC(=O)Nc1c(-c2ccc(C(=O)NC3CCOCC3)cn2)nnn1C)c1cccnc1Cl [Compound 16, (R)-1-(2-chloro-pyridin-3-yl)-ethyl (1-methyl-4-(5-((tetrahydro-2H-pyran-4-yl)-carbamoyl)-pyridin-2-yl)-1H-1,2,3-triazol-5-yl)carbamate]
5 | 14.9 | C[C@@H](OC(=O)Nc1c(-c2ccc(C(=O)Nc3ccnc(C(F)F)c3)cn2)nnn1C)c1cc(F)cnc1F [Compound 31, (R)-1-(2,5-difluoro-pyridin-3-yl)ethyl (4-(5-((2-(difluoro-methyl)pyridin-4-yl)carbamoyl)-pyridin-2-yl)-1-methyl-1H-1,2,3-triazol-5-yl)-carbamate]
6 | 44.8 | C[C@@H](OC(=O)Nc1c(-c2ccc(C(=O)NC34CC(Cl)(C3)C4)cn2)nnn1C)c1cc(F)cnc1F [Compound 21, (R)-1-(2,5-difluoro-pyridin-3-yl)ethyl (4-(5-((3-chloro-bicyclo[1.1.1]-pentan-1-yl)-carbamoyl)pyridin-2-yl)-1-methyl-1H-1,2,3-triazol-5-yl)carbamate]
7 | 55.9 | COc1cc(NC(=O)c2ccc(-c3nnn(C)c3NC(=O)O[C@H](C)c3cc(F)cnc3F)nc2)ccn1 [Compound 32, (R)-1-(2,5-difluoro-pyridin-3-yl)ethyl (4-(5-((2-methoxy-pyridin-4-yl)-carbamoyl)pyridin-2-yl)-1-methyl-1H-1,2,3-triazol-5-yl)-carbamate]
8 | 273 | C[C@@H](OC(=O)Nc1c(-c2ccc(C(=O)Nc3ccnc(OC(F)F)c3)cn2)nnn1C)c1cc(F)cnc1F [Compound 33, (R)-1-(2,5-difluoro-pyridin-3-yl)ethyl (4-(5-((2-(difluoro-methoxy)pyridin-4-yl)carbamoyl)-pyridin-2-yl)-1-methyl-1H-1,2,3-triazol-5-yl)-carbamate]
9 | 8.1 | C[C@@H](OC(=O)Nc1c(-c2ccc(C(=O)NC34CC(Cl)(C3)C4)cn2)nnn1C)c1cccnc1Cl [Compound 2, (R)-1-(2-chloropyridin-3-yl)ethyl (4-(5-((3-chlorobicyclo[1.1.1]pentan-1-yl)carbamoyl)pyridin-2-yl)-1-methyl-1H-1,2,3-triazol-5-yl)carbamate]
10 | < 4.6 | C#CC12CC(NC(=O)c3ccc(-c4nnn(C)c4NC(=O)O[C@H](C)c4cc(F)cnc4Cl)nc3)(C1)C2 [Compound 54, (R)-1-(2-chloro-5-fluoropyridin-3-yl)ethyl (4-(5-((3-ethynylbicyclo-[1.1.1]pentan-1-yl)carbamoyl)-pyridin-2-yl)-1-methyl-1H-1,2,3-triazol-5-yl)-carbamate]
11 | 19.4 | C[C@@H](OC(=O)Nc1c(-c2ccc(C(=O)Nc3ncc(C(F)(F)F)s3)cn2)nnn1C)c1cc(F)cnc1Cl [Compound 53, (R)-1-(2-chloro-5-fluoropyridin-3-yl)ethyl (1-methyl-4-(5-((5-(trifluoro-methyl)thiazol-2-yl)carbamoyl)-pyridin-2-yl)-1H-1,2,3-triazol-5-yl)carbamate]
12 | 88.1 | C[C@@H](OC(=O)Nc1c(-c2ccc(C(=O)NC34CC(F)(C3)C4)cn2)nnn1C)c1cc(F)cnc1Cl [Compound 46, (R)-1-(2-chloro-5-fluoropyridin-3-yl)ethyl (4-(5-((3-fluorobicyclo-[1.1.1]pentan-1-yl)carbamoyl)-pyridin-2-yl)-1-methyl-1H-1,2,3-triazol-5-yl)-carbamate]
13 | 23.2 | C[C@@H](OC(=O)Nc1c(-c2ncc(C(=O)NC34CC(C#N)(C3)C4)cc2F)nnn1C)c1cccnc1Cl [Compound 59, (R)-1-(2-chloropyridin-3-yl)ethyl (4-(5-((3-cyanobicyclo[1.1.1]pentan-1-yl)carbamoyl)-3-fluoropyridin-2-yl)-1-methyl-1H-1,2,3-triazol-5-yl)carbamate]
14 | 196 | C[C@@H](OC(=O)Nc1c(-c2ccc(C(=O)N[C@@H]3C[C@H]3c3ccccc3)cn2)nnn1C)c1cc(F)cnc1F [Compound 37, (R)-1-(2,5-difluoro-pyridin-3-yl)ethyl (1-methyl-4-(5-(((1R,2S)-2-phenyl-cyclopropyl)carbam-oyl)pyridin-2-yl)-1H-1,2,3-triazol-5-yl)carbamate]
15 | 30.4 | C[C@@H](OC(=O)Nc1c(-c2ccc(C(=O)NC34CC(C)(C3)C4)cn2)nnn1C)c1cccnc1Cl [Compound 8, (R)-1-(2-chloro-pyridin-3-yl)-ethyl (1-methyl-4-(5-((3-methyl-bicyclo[1.1.1]-pentan-1-yl)-carbamoyl)-pyridin-2-yl)-1H-1,2,3-triazol-5-yl)carbamate]
16 | 14.5 | C[C@@H](OC(=O)Nc1c(-c2ccc(C(=O)NC34CC(C#N)(C3)C4)c(C(F)(F)F)n2)nnn1C)c1cccnc1Cl [Compound 62, (R)-1-(2-chloropyridin-3-yl)ethyl (4-(5-((3-cyanobicyclo[1.1.1]pentan-1-yl)carbamoyl)-6-(trifluoromethyl)pyridin-2-yl)-1-methyl-1H-1,2,3-triazol-5-yl)carbamate]
17 | 281 | C[C@@H](OC(=O)Nc1c(-c2ccc(C(=O)Nc3nc(C(F)(F)F)co3)cn2)nnn1C)c1cc(F)cnc1Cl [Compound 52]
18 | 74.3 | C[C@@H](OC(=O)Nc1c(-c2ccc(C(=O)Nc3ccc(C#N)cc3)cn2)nnn1C)c1cc(F)cnc1Cl [Compound 49, (R)-1-(2-chloro-5-fluoropyridin-3-yl)ethyl (4-(5-((4-cyanophenyl)-carbamoyl)pyridin-2-yl)-1-methyl-1H-1,2,3-triazol-5-yl)carbamate]
19 | 93 | C[C@@H](OC(=O)Nc1c(-c2ccc(C(=O)Nc3cccc(C(F)(F)F)c3)cn2)nnn1C)c1cc(F)cnc1F [Compound 30, (R)-1-(2,5-difluoro-pyridin-3-yl)ethyl (1-methyl-4-(5-((3-(trifluoromethyl)-phenyl)carbam-oyl)pyridin-2-yl)-1H-1,2,3-triazol-5-yl)carbamate]
20 | 42.9 | C[C@@H](OC(=O)Nc1c(-c2ccc(C(=O)NC34CC(C#N)(C3)C4)cn2)nnn1C)c1cccnc1Cl [Compound 5, (R)-1-(2-chloro-pyridin-3-yl)-ethyl (4-(5-((3-cyanobicyclo [1.1.1]pentan-1-yl)carbamoyl)-pyridin-2-yl)-1-methyl-1H-1,2,3-triazol-5-yl)carbamate]
